For series [1], the target named is nAChR formed by the α7 subunit (3H-α-bungarotoxin binding, cerebral cortex homogenate) (Rattus norvegicus, UniProt Q05941). The series is described as follows: biochemical.
The target in series [2] is nAChRs comprised of α4 and β2 subunits (3H-cytisine binding, cerebral cortex homogenate) (Rattus norvegicus, UniProt P09483+P12390). The series is described as follows: In vitro inhibition of 3H-cytisine binding. How it is done:
In Vitro Inhibition of 3H-cytisine Binding
The predominant subtype with high affinity for nicotine is comprised of α4 and β2 subunits. nAChRs of the latter type can selectively be labelled by the nicotine agonist ^3H-cytisine.
Tissue Preparation: Preparations are performed at 0-4° C. unless otherwise indicated. […] The homogenate is centrifuged at 27,000×g for 10 min. The supernatant is discarded and the pellet is resuspended in fresh buffer and centrifuged a second time. The final pellet is resuspended in fresh buffer (35 ml per g of original tissue) and used for binding assays.
Assay: Aliquots of 500 μl homogenate are added to 25 μl of test solution and 25 μl of ^3H-cytisine (1 nM, final concentration), mixed and incubated for 90 min at 2° C. Non-specific binding is determined using (−)-nicotine (100 μM, final concentration). After incubation the samples are added 5 ml of ice-cold buffer and poured directly onto Whatman GF/C glass fibre filters under suction and immediately washed with 2×5 ml ice-cold buffer. The amount of radioactivity on the filters is determined by conventional liquid scintillation counting. Specific binding is total binding minus non-specific binding.
Results are given as IC50 values; the concentration (μM) that inhibit binding of the radioactive ligand by 50 %.

The conditions of series [3]: background statement; cited from earlier work.
The mark [4] stands for this setting: rat cerebral cortex, 1 nM 3H-cytisine, 90 min at 2° C., read-out: 3H-cytisine IC50.

The structures appear in SMILES notation. Like-named read-outs stand apart in the source and are kept apart here. Where only a bound is given, the exact number is not on record here.

Sequence of nAChR formed by the α7 subunit (3H-α-bungarotoxin binding, cerebral cortex homogenate) (Q05941 23-502): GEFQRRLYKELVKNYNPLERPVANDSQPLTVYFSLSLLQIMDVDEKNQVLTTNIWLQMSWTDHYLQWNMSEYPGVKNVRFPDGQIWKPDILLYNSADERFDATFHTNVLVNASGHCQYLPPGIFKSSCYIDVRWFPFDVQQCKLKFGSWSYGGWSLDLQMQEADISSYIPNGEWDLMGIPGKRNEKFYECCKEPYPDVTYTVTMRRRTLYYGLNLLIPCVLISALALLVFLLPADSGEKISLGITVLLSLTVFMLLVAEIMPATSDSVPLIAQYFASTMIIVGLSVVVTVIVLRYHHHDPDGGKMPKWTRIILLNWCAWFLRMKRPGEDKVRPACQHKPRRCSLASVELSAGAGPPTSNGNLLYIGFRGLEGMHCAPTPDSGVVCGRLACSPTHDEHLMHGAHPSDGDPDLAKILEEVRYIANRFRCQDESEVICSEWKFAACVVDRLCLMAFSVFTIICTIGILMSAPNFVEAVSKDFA
Sequence of nAChRs comprised of α4 and β2 subunits (3H-cytisine binding, cerebral cortex homogenate) (P09483 31-630): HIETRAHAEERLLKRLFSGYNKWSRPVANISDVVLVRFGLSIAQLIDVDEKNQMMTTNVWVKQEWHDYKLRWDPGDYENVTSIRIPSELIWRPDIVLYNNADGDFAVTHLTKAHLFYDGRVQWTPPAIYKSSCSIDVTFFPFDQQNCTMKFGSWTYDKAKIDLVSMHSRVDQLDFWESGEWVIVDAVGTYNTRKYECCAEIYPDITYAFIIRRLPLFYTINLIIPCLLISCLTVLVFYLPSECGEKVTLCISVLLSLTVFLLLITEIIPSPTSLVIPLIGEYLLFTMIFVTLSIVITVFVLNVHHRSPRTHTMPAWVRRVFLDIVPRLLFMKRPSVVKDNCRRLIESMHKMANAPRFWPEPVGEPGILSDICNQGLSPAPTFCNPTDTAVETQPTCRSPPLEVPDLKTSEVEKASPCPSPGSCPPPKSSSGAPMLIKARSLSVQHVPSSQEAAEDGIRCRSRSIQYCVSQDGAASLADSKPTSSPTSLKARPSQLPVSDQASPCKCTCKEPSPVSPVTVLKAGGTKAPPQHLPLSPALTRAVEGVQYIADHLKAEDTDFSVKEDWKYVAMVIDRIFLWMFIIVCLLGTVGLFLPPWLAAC
Sequence of nAChRs comprised of α4 and β2 subunits (3H-cytisine binding, cerebral cortex homogenate) (P12390 25-500): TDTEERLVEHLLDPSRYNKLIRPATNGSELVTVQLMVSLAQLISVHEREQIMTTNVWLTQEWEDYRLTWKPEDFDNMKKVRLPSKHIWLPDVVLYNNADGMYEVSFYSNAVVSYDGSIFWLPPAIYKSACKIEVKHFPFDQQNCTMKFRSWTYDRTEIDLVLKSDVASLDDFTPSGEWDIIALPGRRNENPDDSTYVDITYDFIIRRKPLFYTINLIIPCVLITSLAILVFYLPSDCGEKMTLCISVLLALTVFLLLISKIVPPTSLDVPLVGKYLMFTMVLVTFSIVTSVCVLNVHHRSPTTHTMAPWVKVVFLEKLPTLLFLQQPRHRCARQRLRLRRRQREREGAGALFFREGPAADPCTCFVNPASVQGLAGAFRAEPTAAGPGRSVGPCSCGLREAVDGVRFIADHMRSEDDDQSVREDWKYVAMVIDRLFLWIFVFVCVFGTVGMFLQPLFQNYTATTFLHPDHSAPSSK

For orientation: IC50 means the point on the concentration scale where inhibition reaches its midpoint. The term melting point denotes the temperature of the solid-liquid transition. Take `Cc1ccc2c(c1)OC1(CN3CCC1CC3)O2` (racemic) [Compound 2a, (±)-6-methyl-spiro[benzo-1,3-dioxolane-2,3′-quinuclidine]]: the melting point is 173 to 175 °C. In addition, in series [1], the IC50 worked out at 180 nM. In addition, in series [2] (setting [4]), the IC50 amounted to 23000 nM.
For the compound `CC(C)(C)c1ccc2c(c1)OC1(CN3CCC1CC3)O2` (racemic) [Compound 3a, (±)-6-t.-Butyl-spiro[benzo-1,3-dioxolane-2,3′-quinuclidine]], the melting point lay in the range of 184 to 186 °C. For the same compound, the IC50 in series [1] was 2300 nM. Further, the IC50 in series [2] (setting [4]) is above 10000 nM.
Turning to `c1ccc2c(c1)OC1(CN3CCC1CC3)O2` [Compound 1a, Spiro[benzo-1,3-dioxolane-2,3-quinuclidine]], the melting point is 123 to 125 °C. Further, the IC50 in series [1] turned out to be 190 nM. This compound registered an IC50 in series [2] of 30000 nM.
Consider `Clc1ccc(C2CC3CCC2N3)cn1` (stereo not shown) [Epibatidine], for which the “analgesic potency relative to morphine” value in series [3] was ~500 times that of morphine.

The record behind these values is patent US6352995B1, “Spiro-quinuclidine derivatives, their preparation and use” (Neurosearch A/S, priority 1997, dated 2002).
